Data as given in patent US6706663B2, “Herbicidal 3-heterocyclic substituted benzisothiazole and benzisoxazole compounds” (Wyeth, priority 2000, dated 2004).

Experiments:
[1] = test system: IPOHE (Ipomoea hederacea); test: Preemergence herbicidal evaluation; assay type: in vivo, (L.) Jacq.; conditions: rated 4-5 weeks after treatment
GALAP (Galium aparine) = test: Postemergence herbicidal evaluation; assay type: in vivo; conditions: postemergence
Procedure, shortened: (§1)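 Visual 0–9 injury scores versus control plants, covering stand, vigour, malformation, size, chlorosis and general appearance, taken four to five weeks post-spray and averaged over replicate tests. Plants were sprayed at roughly two weeks old and held on greenhouse benches.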

[2] = test system: AMBEL (Ambrosia artemisifolia); test: Postemergence herbicidal evaluation; assay type: in vivo, L.; conditions: postemergence
Procedure, shortened: as §1

[3] = test system: CASOB (Cassia obtusifolia); test: Postemergence herbicidal evaluation; assay type: in vivo, L.; conditions: postemergence
Procedure, shortened: as §1

[4] = test system: CHEAL (Chenopodium album); test: Postemergence herbicidal evaluation; assay type: in vivo, L.; conditions: postemergence
Procedure, shortened: as §1

[5] = test system: GLXMAW (Soybean, Williams); test: Preemergence herbicidal evaluation; assay type: in vivo, Glycine max, (L.) Merr. cv Williams; conditions: rated 4-5 weeks after treatment
ORYSAT (Rice, Tebonnet) = test: Flooded paddy, post-transplant rice tolerance; assay type: in vivo, Oryza sativa, (L.) Tebonnet; conditions: flooded paddy, post-transplant rice, rated 3-4 weeks after treatment, 0-9 rating scale
Procedure, shortened: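 Visual 0–9 injury rating against a control, covering stand, vigor, malformation, size, chlorosis and overall appearance. Treatment was post-transplant onto flooded containers (water 1.5–3 cm deep, silt loam) holding two ten-day-old cv. Tebonnet seedlings, maintained on greenhouse benches.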

ZEAMX (Corn, Field) = test: Preemergence herbicidal evaluation; assay type: in vivo, Zea mays, L.; conditions: rated 4-5 weeks after treatment
CYPIR (Cyperus iria) = test: Flooded paddy, preemergence weed control; assay type: in vivo; conditions: rated 3-4 weeks after treatment, 0-9 rating scale
Procedure, shortened: (§2)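 Flooded silt loam pots, seeds in upper 0.5 cm, water held 1.5–3 cm deep; greenhouse; visual 0-9 score vs control.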

[6] = test system: ABUTH (Abutilon theophrasti); test: Postemergence herbicidal evaluation; assay type: in vivo, Medic.; conditions: postemergence
Procedure, shortened: as §1

[7] = test system: SAGPY (Sagittaria pygmaea); test: Flooded paddy, preemergence weed control; assay type: in vivo, L.; conditions: rated 3-4 weeks after treatment, 0-9 rating scale
Procedure, shortened: as §2

SMILES | Preemergence herbicidal rating IPOHE ([1]; Rate 0.0620 kg/ha) | Preemergence herbicidal rating IPOHE ([1]; Rate 0.1250 kg/ha) | Preemergence herbicidal rating IPOHE ([1]; Rate 0.2500 kg/ha) | GALAP herbicidal rating (GALAP (Galium aparine); rate 0.0320 kg/ha) | GALAP herbicidal rating (GALAP (Galium aparine); rate 0.0620 kg/ha) | AMBEL herbicidal rating ([2]; rate 0.0320 kg/ha) | AMBEL herbicidal rating ([2]; rate 0.0620 kg/ha) | CASOB herbicidal rating ([3]; rate 0.0320 kg/ha) | CASOB herbicidal rating ([3]; rate 0.0620 kg/ha) | CHEAL herbicidal rating ([4]; rate 0.0320 kg/ha) | CHEAL herbicidal rating ([4]; rate 0.0620 kg/ha) | Preemergence herbicidal rating GLXMAW ([5]; Rate 0.0620 kg/ha) | Preemergence herbicidal rating GLXMAW ([5]; Rate 0.1250 kg/ha) | Preemergence herbicidal rating GLXMAW ([5]; Rate 0.2500 kg/ha) | herbicidal rating, ORYSAT (rice tolerance) (ORYSAT (Rice, Tebonnet); rate 0.0320 kg/ha) | herbicidal rating, ORYSAT (rice tolerance) (ORYSAT (Rice, Tebonnet); rate 0.1250 kg/ha) | Preemergence herbicidal rating ZEAMX (ZEAMX (Corn, Field); Rate 0.0620 kg/ha) | Preemergence herbicidal rating ZEAMX (ZEAMX (Corn, Field); Rate 0.1250 kg/ha) | Preemergence herbicidal rating ZEAMX (ZEAMX (Corn, Field); Rate 0.2500 kg/ha) | herbicidal rating, CYPIR (CYPIR (Cyperus iria); rate 0.0320 kg/ha) | other results
CC1COC(c2nsc3ccc(-n4c(=O)cc(C(F)(F)F)n(C)c4=O)cc23)O1 (stereo not drawn) [Compound 57, 1-methyl-3-[3-(4-methyl-1,3-dioxolan-2-yl)-1,2-benzisothiazol-5-yl]-6-(trifluoromethyl)uracil] | 9.0 | 9.0 | 9.0 | 6.0 | 9.0 | 9.0 | 9.0 | 7.0 | 9.0 | 9.0 | 7.0 | 9.0 | 9.0 | 9.0 | 8.0 | 9.0 | 7.5 | 8.0 | 9.0 | 7.5 | herbicidal rating, ORYSAT (rice tolerance) (ORYSAT (Rice, Tebonnet); rate 0.0080 kg/ha): 3.0; herbicidal rating, CYPIR (CYPIR (Cyperus iria); rate 0.0080 kg/ha): 0.0; herbicidal rating, CYPIR (CYPIR (Cyperus iria); rate 0.1250 kg/ha): 9.0; ABUTH herbicidal rating ([6]; rate 0.0320 kg/ha): 9.0; ABUTH herbicidal rating ([6]; rate 0.0620 kg/ha): 9.0; herbicidal rating, SAGPY ([7]; rate 0.0080 kg/ha): 0.0; herbicidal rating, SAGPY ([7]; rate 0.0320 kg/ha): 4.5; herbicidal rating, SAGPY ([7]; rate 0.1250 kg/ha): 7.5
C=C1COC(c2nsc3ccc(-n4c(=O)cc(C(F)(F)F)n(C)c4=O)cc23)OC1 [Compound 58, 2,4(1H,3H)-pyrimidinedione, 1-methyl-3-[3-(5-methylene-m-dioxan-2-yl)-1,2-benzisothiazol-5-yl]-6-(trifluoromethyl)-] | 6.5 | 7.5 | 9.0 | 7.0 | 9.0 | 9.0 | 9.0 | 1.0 | 8.0 | 3.0 | 5.0 | 9.0 | 8.0 | 9.0 | 4.0 | 7.0 | 8.0 | 9.0 | 9.0 | 6.0 | herbicidal rating, CYPIR (CYPIR (Cyperus iria); rate 0.1250 kg/ha): 9.0; ABUTH herbicidal rating ([6]; rate 0.0320 kg/ha): 9.0; ABUTH herbicidal rating ([6]; rate 0.0620 kg/ha): 9.0; herbicidal rating, SAGPY ([7]; rate 0.0320 kg/ha): 2.0; herbicidal rating, SAGPY ([7]; rate 0.1250 kg/ha): 5.0
Cc1cnn(-c2nsc3ccc(-n4c(=O)cc(C(F)(F)F)n(C)c4=O)cc23)c1 [Compound 59, 1-methyl-3-[3-(4-methylpyrazol-1-yl)-1,2-benzisothiazol-5-yl]-6-(trifluoromethyl)uracil] | 0.0 | 1.0 | 3.0 | 0.0 | 3.0 | 9.0 | 9.0 | 0.0 | 3.0 | 8.0 | 9.0 | 0.0 | 2.0 | 3.0 | 0.0 | 0.0 | 1.0 | 5.0 | 5.0 | 3.0 | GALAP herbicidal rating (GALAP (Galium aparine); rate 0.1250 kg/ha): 3.0; AMBEL herbicidal rating ([2]; rate 0.1250 kg/ha): 9.0; CASOB herbicidal rating ([3]; rate 0.1250 kg/ha): 3.0; CHEAL herbicidal rating ([4]; rate 0.1250 kg/ha): 9.0; herbicidal rating, ORYSAT (rice tolerance) (ORYSAT (Rice, Tebonnet); rate 0.0080 kg/ha): 0.0; herbicidal rating, CYPIR (CYPIR (Cyperus iria); rate 0.0080 kg/ha): 0.0; herbicidal rating, CYPIR (CYPIR (Cyperus iria); rate 0.1250 kg/ha): 9.0; ABUTH herbicidal rating ([6]; rate 0.0320 kg/ha): 9.0; ABUTH herbicidal rating ([6]; rate 0.0620 kg/ha): 9.0; ABUTH herbicidal rating ([6]; rate 0.1250 kg/ha): 9.0; herbicidal rating, SAGPY ([7]; rate 0.0080 kg/ha): 0.0; herbicidal rating, SAGPY ([7]; rate 0.0320 kg/ha): 0.0; herbicidal rating, SAGPY ([7]; rate 0.1250 kg/ha): 0.0
Cn1c(C(F)(F)F)cc(=O)n(-c2ccc3snc(-c4ccco4)c3c2)c1=O [Compound 60, 3-[3-(2-furyl)-1,2-benzisothiazol-5-yl]-1-methyl-6-(trifluoromethyl)uracil] | 0.0 | 0.0 | 9.0 | 7.0 | 9.0 | 9.0 | 9.0 | 1.0 | 4.0 | 6.0 | 5.0 | 1.0 | 3.0 | 4.0 | 1.5 | 2.5 | 3.0 | 5.0 | 6.0 | 6.0 | herbicidal rating, ORYSAT (rice tolerance) (ORYSAT (Rice, Tebonnet); rate 0.0080 kg/ha): 0.0; herbicidal rating, CYPIR (CYPIR (Cyperus iria); rate 0.0080 kg/ha): 0.0; herbicidal rating, CYPIR (CYPIR (Cyperus iria); rate 0.1250 kg/ha): 7.0; ABUTH herbicidal rating ([6]; rate 0.0320 kg/ha): 9.0; ABUTH herbicidal rating ([6]; rate 0.0620 kg/ha): 9.0; herbicidal rating, SAGPY ([7]; rate 0.0080 kg/ha): 0.0; herbicidal rating, SAGPY ([7]; rate 0.0320 kg/ha): 0.0; herbicidal rating, SAGPY ([7]; rate 0.1250 kg/ha): 2.5
